How the values were obtained:
[1] = tested on: PCSK9[1:33]-GFP translation; assay: Wheat germ lysate (WG) IVTT microplate activity assay, PCSK9[1:33]-GFP template; format: biochemical; conditions: for inhibition of PCSK9[1:33]-GFP translation (in words) / IC50: WG IVTT; for IC50: PCSK9[1:33]-GFP template, triplicate, ± standard deviation of the mean
Text: A commercially available wheat germ lysate (WG) IVTT system was employed to assay translation inhibition. Translation activity was detected via a GFP reporter, and the assay was miniaturized to picoliter-scale microfluidic droplets (Figure 1A,B). […] PCSK9 and RPL27 were truncated to the first 33 and 32 amino acids, respectively (PCSK9[1:33] and RPL27[1:32]). The sequences contain distinct PF846 stall sites and were both fused to a GFP reporter. The GFP reporter and a frameshift mutant of PCSK9[1:33] (PCSK9-FS[1:33]), which mutates the nascent chain sequence while maintaining a nearly identical mRNA sequence, were included as negative controls.[13] […] Sequence sensitivity was further confirmed by an N-terminal deletion series of PCSK9[1:33]-GFP; deletion of N-terminal residues increasingly ablated PCSK9[1:33]-GFP translation sensitivity to PF846 (Figure 1D). The WG IVTT assay was miniaturized using a previously described microfluidic circuit modified for longer incubation times (Figure S1)[27] using PF846 as a positive control compound, and assay statistical quality was calculated (Z′=0.7) (Figure 1E). To confirm detection of translation inhibition from library beads, hygromycin B, a nonselective aminoglycoside translation inhibitor, was coupled to beads displaying a photocleavable linker (PC-HygB). UV irradiation releases hygromycin from the bead, allowing it to interact with the WG IVTT assay in the droplet. PC-HygB bead photocleavage supernatant inhibited PCSK9[1:33]-GFP translation both in a microplate assay and in microfluidic droplets (Figure 1F,G, S2). Assay statistical quality using PC-HygB positive control beads was similarly calculated (Z′ = 0.75, Figure 1H). […]
436 Microplate IVTT Assays
437 Wheat germ lysate IVTT plate assays were prepared as 5 µL reactions. Wheat germ lysate
438 (3 µL) was added to test compound or vehicle control (1 µL) in a 384-well black microplate
439 and the reaction was incubated (10 min, RT). Template (1 µL) was added and reaction
440 progress was immediately monitored (λex = 480 nm, λem = 530 nm, 27 °C, 2 h). Rela-
441 tive activity was calculated using the slope of fluorescence increase over time (at 15–30
442 min post reaction initiation) for compound samples relative to that of the DMSO vehicle
443 control. […]

[2] = tested on: HeLa-derived IVTT; assay: HeLa lysate IVTT microplate activity assay; format: biochemical, human; conditions: dose-response
Text: 421 region sequences were matched to an alpha numeric DNA region identifier (11xx, 22xx,
422 13xx, 24xx, 15xx, 26xx, respectively), while allowing a 1-bp mutation per encoding region.
423 No insertions or deletions were tolerated.
424 match a known encoding region identifier at all six encoding positions (2) contained a
425 single point mutation in more than 4 of the DNA encoding regions (3) contained a UMI
427 presented in the library or positive control designs or (5) contained a minimum Phred
428 quality score less than 20. A sum of UMI counts for all remaining unique combinations
429 of encoding region identifiers was then determined using a UMI aggregation algorithm;
430 1 bp mutations were considered the same UMI. Encoding region identifiers were then
431 converted to library BB identifiers per the library design with an associated UMI count.
432 Any encoding region/ bead-specific barcode combinations with a UMI count below a
433 manually determined threshold (10) were discarded. The remaining ”valid beads” were […]
440 progress was immediately monitored (λex = 480 nm, λem = 530 nm, 27 °C, 2 h). […]
441 tive activity was calculated using the slope of fluorescence increase over time (at 15–30 […]
449 immediately monitored (λex = 480 nm, λem = 530 nm, 27 °C, 2 h). […]
450 culated using the slope of fluorescence increase over time (15–30 min post reaction initia- […]

Row | SMILES | inhibition of PCSK9[1:33]-GFP translation (in words) [1] | IC50 [1] [µM] | activity in HeLa-derived (human) IVTT (in words) [2] | inhibition of translation of all reporters (in words) ([1]; all IVTT reporters tested)
1 | Cc1cccc2ccnc(N(C(=O)[C@H]3CCCN(C(=O)c4cccc5c(C#N)c[nH]c45)C3)[C@@H]3CCCNC3)c12 [Compound 8] | moderately inhibited | 1.3 ± 0.2 | active | –
2 | Cc1cccc2ccnc(N(C(=O)C3CCN(C(=O)c4cccc5c(C#N)c[nH]c45)CC3)[C@@H]3CCCNC3)c12 [Compound 9] | similarly active on both templates | 19.6 ± 0.2 | active | universally and completely inhibited

— PMC11503492, “Activity-Based DNA-Encoded Library Screening for Selective Inhibitors of Eukaryotic Translation” (ACS Central Science, 2024)
